Assay results taken from paper PMC6332194, “Synthesis of C3/C1-Substituted Tetrahydroisoquinolines” (Molecules, 2015).

Columns and labels:
Test in all cases: fluorogenic peptide-AMC hydrolysis assay
Format in all cases: biochemical
[1] = molecular target: T1, recombinant Leishmania mexicana cysteine protease CPB2.8 (Leishmania mexicana, UniProt P36400)
T1 construct: gene LMCPB; recombinant; often used without C-terminal extension

[2] = molecular target: T2, human 20S proteasome, β2-subunits (trypsin-like activity) (Homo sapiens, UniProt Q99436)
T2 construct: gene PSMB7; commercial 20S core particle (Biomol GmbH); with Proteasome subunit beta type-3; Proteasome subunit beta type-5; Proteasome subunit beta type-6; Proteasome subunit beta type-1; Proteasome subunit beta type-2; Proteasome subunit beta type-4; Proteasome subunit alpha type-6; Proteasome subunit alpha type-2; Proteasome subunit alpha type-4; Proteasome subunit alpha type-7; Proteasome subunit alpha type-5; Proteasome subunit alpha type-1; Proteasome subunit alpha type-3
T2 sequence (Q99436 44-277): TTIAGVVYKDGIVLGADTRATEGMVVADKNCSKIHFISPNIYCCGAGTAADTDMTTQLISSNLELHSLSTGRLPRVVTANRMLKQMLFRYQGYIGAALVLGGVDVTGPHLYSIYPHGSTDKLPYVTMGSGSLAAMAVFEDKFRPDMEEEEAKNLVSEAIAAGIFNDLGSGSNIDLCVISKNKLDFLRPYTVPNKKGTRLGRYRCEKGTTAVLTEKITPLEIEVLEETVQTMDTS

[3] = molecular target: T3, human 20S proteasome, β5-subunits (chymotrypsin-like activity) (Homo sapiens, UniProt P28074)
T3 construct: gene PSMB5; commercial 20S core particle (Biomol GmbH); with Proteasome subunit beta type-1; Proteasome subunit beta type-6; Proteasome subunit beta type-7; Proteasome subunit beta type-3; Proteasome subunit beta type-2; Proteasome subunit beta type-4; Proteasome subunit alpha type-6; Proteasome subunit alpha type-2; Proteasome subunit alpha type-4; Proteasome subunit alpha type-7; Proteasome subunit alpha type-5; Proteasome subunit alpha type-1; Proteasome subunit alpha type-3
T3 sequence (P28074 60-263): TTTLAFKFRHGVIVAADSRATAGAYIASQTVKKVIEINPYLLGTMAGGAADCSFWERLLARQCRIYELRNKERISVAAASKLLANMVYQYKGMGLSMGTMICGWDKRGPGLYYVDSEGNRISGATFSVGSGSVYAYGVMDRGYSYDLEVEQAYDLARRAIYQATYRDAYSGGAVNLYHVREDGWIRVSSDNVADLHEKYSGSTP

T1 sequence (P36400 126-340): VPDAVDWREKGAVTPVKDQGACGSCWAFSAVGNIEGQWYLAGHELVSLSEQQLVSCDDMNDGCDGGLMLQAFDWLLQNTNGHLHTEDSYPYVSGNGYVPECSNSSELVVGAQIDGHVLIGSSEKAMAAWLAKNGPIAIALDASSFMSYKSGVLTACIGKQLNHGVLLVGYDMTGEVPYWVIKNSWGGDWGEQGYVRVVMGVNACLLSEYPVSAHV

For `COc1cc2c(cc1O)[C@@H](C)N(C)CC2` [compound 2, N-methylisosalsoline], the inhibition at 20 µM [1] was ~14%, the inhibition at 20 µM [2] was ~20% and the inhibition at 20 µM [3] was ~40%.
